Key:
Caspase-3 = Caspase-3 protease activity (ApoTarget kit); type: cell-based; parameters: unit of the concentration uncertain
Text: The ApoTarget Caspase-3 Protease Activity Kit (Invitrogen) was used per manufacturer's instructions.
The balance between pro- and anti-apoptotic protein expression contributes to cell fate decisions. CREB regulates the expression of several anti-apoptotic proteins, including Bcl-2, Bcl-XL and Mcl-1. Bcl-2 expression in particular is known to mediate resistance to chemotherapy and influence clinical outcome in a number of cancer types, including AML. The ability of Compound A to cause apoptosis by disrupting the CREB-driven expression of these anti-apoptotic proteins was examined. In HL-60 cells treated with Compound A, apoptosis is induced in a dose- and time-dependent manner. […] Compound A elicited apoptosis through the intrinsic apoptosis pathway, with activation of Caspase-3 (FIG. 5, panel B) and detectable Caspase-9 cleavage (data not shown). Relative caspase-3 activity at 24 hours: 5.4±0.8 for etoposide, 1±0.78, 0.93±0.71, 1.02±0.67, 2.9±0.58, 5.1±0.63, 4.1±0.71 for 0, 1, 1.5, 2, 2.5 and 3 mM Compound A, respectively. Activity at 72 hours: 1.2±0.05 for etoposide, 1.0±0.02, 1.9±0.03, 3.7±0.04, 4.4±0.05, 2.1±0.03, 1.9±0.02 for 0, 1, 1.5, 2, 2.5 and 3 mM Compound A, respectively. The transcription of Bcl-2 decreased following 72 hours of 2 mM Compound A treatment (FIG. 5, panel C), and this was verified by Western blot analysis (FIG. 5, panel D). […] To confirm whether loss of Bcl-2 function alone is sufficient to induce apoptosis in AML cells, HL-60 cells were treated with the validated Bcl-2 inhibitor ABT-737 (50 to 200 nM). […] Bcl-2 levels are influenced by CREB expression in these AML cell lines (FIG. 11, panel C).

HL-60 AML cells = test: HL-60 AML xenograft in NSG mice; type: in vivo; details: for GFP+ cells in bone marrow / GFP+ cells in spleen / spleen weight: endpoint
Experimental: For AML xenograft mouse experiments, HL-60 cells (2×10^6) expressing firefly luciferase and GFP, or cryopreserved human AML patient cells (5×10^6), were injected through the tail vein into NOD.Cg-prkdc^scid Il2rg^tm1WjlSzJ (NSG) mice. Mice were then Compound A or 10% DMSO, injected intravenously by tail vein daily, until death or an endpoint was reached (moribundity) in accordance with the animal care institutional guidelines. All mouse experiments were subject to institutional approval by Stanford University Institutional Animal Care and Use Committee. Leukemia progression in mice at the indicated time points was monitored using an in vivo IVIS 100 bioluminescenceoptical imaging system (Xenogen Corporation). D-Luciferin (Promega) dissolved in sterile phosphate-buffered saline was injected intraperitoneally at a dose of 2.5 mg/kg, 15 minutes before measuring the luminescent signal. General anesthesia was induced with […] and continued during the procedure using a nose cone. Analysis was performed on Living Image In Vivo imaging software (Perkin-Elmer). Imaging was performed in collaboration with the Stanford Small Animal Imaging Facility. Bone marrow was aspirated from bone marrow cavities, and GFP+ cells were sorted using the FACSCalibur flow cytometer (BD Biosciences).
To examine the efficacy of CREB inhibition in an in vivo model of AML, 4-6 week old NOD.Cg-Prkdc^scid Il2rg^tm1WjlSzJ (NSG) mice were tail-vein injected with HL-60 AML cells (2×10^6) expressing Firefly luciferase and GFP. Groups of ten mice received 10% DMSO or 2.3 mg/kg Compound A intravenously (IV) once daily starting the day after cell injection (immediate treatment groups), or one of the same two treatments starting seven days after AML cell injection (delayed treatment groups). This dose of Compound A was selected, as it was the maximum deliverable IV injection concentration and volume in 10% DMSO solution per gram mouse body weight. […] The efficacy of Compound A was also assessed in a mouse xenograft model using primary AML cell sample (patient sample #186), using similar methods.

[1] = system: Bcl-2, Mcl-1 expression in KG-1 cells; test: Western blot of anti-apoptotic proteins in KG-1 cells; type: cell-based
Experimental: Cells were lysed in RIPA buffer (Sigma), and the protein concentrations were determined by BCA assay (Thermo Scientific Pierce). Lysates were solubilized in 6×SDS PAGE buffer and […] of protein was loaded into 6-15% SDS PAGE gels, pheresed, and then transferred onto […] PVDF membrane (Millipore). Primary antibodies were applied at a dilution of 1:1000. Anti-Bcl-2, -Bax, -Mcl-1, -Bcl-XL, -Cyclin A and -Cyclin D1 antibodies were purchased from Cell Signaling Technologies. Anti-total acetylated histone and -ac-H3K27 were purchased from Santa Cruz Biotechnologies. Anti-actin and -CREB antibodies were purchased from upstate. Secondary antibodies were used at a 1:2500 dilution and purchased from Thermo Scientific/Pierce. WesternBright ECL was used for image acquisition on Image Lab software (Bio-Rad).
The balance between pro- and anti-apoptotic protein expression contributes to cell fate decisions. CREB regulates the expression of several anti-apoptotic proteins, including Bcl-2, Bcl-XL and Mcl-1. Bcl-2 expression in particular is known to mediate resistance to chemotherapy and influence clinical outcome in a number of cancer types, including AML. The ability of Compound A to cause apoptosis by disrupting the CREB-driven expression of these anti-apoptotic proteins was examined. In HL-60 cells treated with Compound A, apoptosis is induced in a dose- and time-dependent manner. […]

[2] = delayed treatment group (from day 7), 2.3 mg/kg IV once daily
[3] = immediate treatment group, 2.3 mg/kg IV once daily

N#Cc1ccc(NC(=O)c2cc3ccccc3cc2O)cc1 [Compound A, N-(4-cyanophenyl)-3-hydroxy-2-naphthamide]
relative caspase-3 activity (Caspase-3; 24 hours, 1 (unit uncertain)): 0.93±0.71
relative caspase-3 activity (Caspase-3; 24 hours, 1.5 (unit uncertain)): 1.02±0.67
relative caspase-3 activity (Caspase-3; 24 hours, 2 (unit uncertain)): 2.9±0.58
relative caspase-3 activity (Caspase-3; 24 hours, 2.5 (unit uncertain)): 5.1±0.63
relative caspase-3 activity (Caspase-3; 24 hours, 3 (unit uncertain)): 4.1±0.71
relative caspase-3 activity (Caspase-3; 72 hours, 1 (unit uncertain)): 1.9±0.03
relative caspase-3 activity (Caspase-3; 72 hours, 1.5 (unit uncertain)): 3.7±0.04
relative caspase-3 activity (Caspase-3; 72 hours, 2 (unit uncertain)): 4.4±0.05
relative caspase-3 activity (Caspase-3; 72 hours, 2.5 (unit uncertain)): 2.1±0.03
relative caspase-3 activity (Caspase-3; 72 hours, 3 (unit uncertain)): 1.9±0.02
mean weight of visceral tumors (HL-60 AML cells; Compound A-treated group): 0.027 ± 0.019 g
mice that developed visible visceral tumors (chloromas) (HL-60 AML cells; Compound A-treated group): 4 of 10
liver weights (HL-60 AML cells; across groups): no differences in liver weights
circulating leukemia cells (blood counts and smear) (HL-60 AML cells; at the time of sacrifice): none of the Compound A-treated mice had detectable circulating leukemia cells
GFP+ cells in bone marrow (HL-60 AML cells; delayed group): 19.9±8.22%
GFP+ cells in spleen (HL-60 AML cells; delayed group): 4.1±1.44%
spleen weight (HL-60 AML cells; delayed group): 50.6 ± 9.1 mg
mean survival (HL-60 AML cells; [2]): 26.4 days
median survival (HL-60 AML cells; [2]): 24 days
average radiance (bioluminescence imaging) (HL-60 AML cells; delayed treatment, 2.3 mg/kg IV once daily, day 17): 2.8×10^5 p/sec/cm^2/sr
GFP+ cells in bone marrow (HL-60 AML cells; immediate group): 9.3±1.28%
GFP+ cells in spleen (HL-60 AML cells; immediate group): 0.64±0.27%
spleen weight (HL-60 AML cells; immediate group): 43.3 ± 3.6 mg
mean survival (HL-60 AML cells; [3]): 31.2 days
median survival (HL-60 AML cells; [3]): 31 days
Bcl-2 expression [1]: decreased Bcl-2 expression
Mcl-1 expression [1]: pronounced decrease in Mcl-1

— US20210205292A1, “INHIBITORS OF CREB-CBP INTERACTION FOR TREATMENT OF LEUKEMIA” (The Board of Trustees of the Leland Stanford Junior …, priority 2016, published 2021)
